Source: paper PMC8623647 (Pharmaceuticals, 2021)
Several values for one entry are separate records, joined by “and”; a condition that tells them apart may be missing. Equal values may be shown once. Entries after “also recorded” stand apart in the source; their conditions may differ. Read-outs that look alike come from different tables or passages of the source. Each block holds one compound with its values, some of them ahead of it.

How the values were obtained:
[1] = target: MAO-B; set-up: method as in PMID 28577983; settings: methoxylated chalcones previously reported ref 30; cited from earlier work
[2] = BBB permeation by parallel artificial membrane permeability assay (PAMPA); format: in vitro ADME; settings: for Prediction (BBB permeation): PAMPA-BBB class from Pe; for Papp: read-out: Experimental Pe
Description: The CNS bioavailability of the lead candidates was further ascertained by PAMPA method [31].

[3] = set-up: method as in PMID 12667689; settings: PAMPA-BBB ref 31; cited from earlier work
[4] = target: T1, MAO-B (Homo sapiens, UniProt P27338); assay: Reversibility of MAO-B inhibition by dialysis; format: biochemical; settings: for MAO-B activity of dialyzed sample (AD): after dialysis; for MAO-B activity of dialyzed sample (AD) / MAO-B activity of undialyzed sample (AU): test compounds […], lazabemide 0.20 µM, pargyline 0.30 µM; for MAO-B activity of undialyzed sample (AU): preincubated 30 min
T1 sequence (P27338 1-520): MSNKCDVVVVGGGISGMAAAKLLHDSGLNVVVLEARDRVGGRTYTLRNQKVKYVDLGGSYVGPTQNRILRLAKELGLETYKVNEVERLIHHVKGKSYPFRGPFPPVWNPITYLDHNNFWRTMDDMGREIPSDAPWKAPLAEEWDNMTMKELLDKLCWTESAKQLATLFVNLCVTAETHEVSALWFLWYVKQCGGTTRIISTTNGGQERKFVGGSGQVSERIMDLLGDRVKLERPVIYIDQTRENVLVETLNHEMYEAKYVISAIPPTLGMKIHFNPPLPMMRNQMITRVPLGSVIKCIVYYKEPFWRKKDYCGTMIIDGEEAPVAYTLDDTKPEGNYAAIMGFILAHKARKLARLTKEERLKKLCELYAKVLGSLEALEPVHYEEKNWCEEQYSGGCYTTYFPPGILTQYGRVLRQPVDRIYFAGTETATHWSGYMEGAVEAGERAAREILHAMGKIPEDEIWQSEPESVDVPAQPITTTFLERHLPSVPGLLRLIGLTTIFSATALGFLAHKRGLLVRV
Description: The reversibilities of MAO-B inhibitions by TM1 and TM8 were assessed by dialysis. […] Reversibility patterns were determined by comparing the activities of dialyzed (AD) and undialyzed (AU) samples.

[5] = target: T1, MAO-B; assay: Kinetics study of MAO-B inhibition (Lineweaver-Burk and secondary plots); format: biochemical
Description: Kinetic studies on MAO-B inhibitions were performed on TM1 and TM8.

[6] = Cytotoxicity by MTT assay; format: cell-based, African Green Monkey; settings: African green monkey, Vero cells (kidney); Vero cells treated at effective concentrations; read-out: Cells remaining viable
Description: (§1) African Green Monkey kidney cells (VERO cells) were used to evaluate the cytotoxic effects of TM1 and TM8. Cells were incubated with different doses (1 µg/mL to 500 µg/mL) of the two compounds for 48 h, and relative cell viabilities were determined by MTT assay.
(§2) The cytotoxicities and ROS quenching abilities of the two lead compounds (TM1 and TM8) were evaluated as previously described.
(§3) Figure 4 Effect of TM1 on Vero cell viability. (a) cell viability treated with TM1; (b) dose-response curve; (c) phase contrast microscope images of Vero cells treated with different concentrations of TM1. Cells were treated with TM1 for 48 h and cell viabilities were assessed by MTT assay as described in Section 4.
as §3, with “Figure 5” for “Figure 4”, “of TM8” for “of TM1”, “with TM8;” for “with TM1;”, “of TM8.” for “of TM1.”, “with TM8” for “with TM1”

[7] = tested on: Vero cells; assay: Cytotoxicity by MTT assay; format: cell-based, African Green Monkey; settings: 48 h, MTT assay; for IC50: Chlorocebus sabaeus, Vero, read-out: IC50 for Vero cell viability; for Concentrations resulting in high viability (>90%): Vero cells
Description: as §1, §2, §3
as §3, with “Figure 5” for “Figure 4”, “of TM8” for “of TM1”, “with TM8;” for “with TM1;”, “of TM8.” for “of TM1.”, “with TM8” for “with TM1”

[8] = tested on: Vero cells; assay: ROS assay (H2O2-induced ROS levels); format: cell-based, African Green Monkey; settings: compound at its IC50 value, exogenous H2O2
Description: ROS increase vulnerability to neuronal damage by causing oxidative damage in the brain during neurodegenerative diseases.
as §2
Figure 6 Effects of TM1 (a) and TM8 (b) on H2O2-induced ROS levels. Vero cells (1 × 10^6 cells/mL) were pre-incubated with 100 μg/mL of 30% H2O2 and ROS production was evaluated immediately as described in Section 4.

[9] = target: T2, recombinant human MAO-A (Homo sapiens, UniProt P21397); assay: MAO-A enzyme inhibition (kynuramine substrate, 316 nm); settings: for remaining activity at 10 µM: read-out: Residual Activity at 10 µM (%) MAO-A
T2 sequence (P21397 1-527): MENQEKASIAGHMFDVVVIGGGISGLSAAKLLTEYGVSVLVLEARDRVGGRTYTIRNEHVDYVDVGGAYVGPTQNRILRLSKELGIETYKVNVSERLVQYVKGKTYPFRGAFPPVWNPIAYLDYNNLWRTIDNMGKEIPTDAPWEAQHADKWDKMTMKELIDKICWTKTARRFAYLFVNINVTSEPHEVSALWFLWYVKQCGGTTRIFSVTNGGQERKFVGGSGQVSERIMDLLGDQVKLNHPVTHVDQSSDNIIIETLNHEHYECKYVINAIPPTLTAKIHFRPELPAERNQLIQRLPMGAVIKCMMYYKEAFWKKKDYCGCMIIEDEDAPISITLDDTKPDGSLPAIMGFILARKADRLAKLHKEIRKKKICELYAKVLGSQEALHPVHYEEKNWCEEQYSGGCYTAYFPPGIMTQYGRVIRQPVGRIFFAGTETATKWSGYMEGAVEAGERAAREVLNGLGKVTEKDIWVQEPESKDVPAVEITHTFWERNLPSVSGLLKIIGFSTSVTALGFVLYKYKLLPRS
Description: (§4) MAO activity assays were performed using recombinant human MAO-A or MAO-B.
(§5) IC50 values were determined by measuring residual enzyme activities.

[10] = target: T1, MAO-B; assay: MAO-B enzyme inhibition (benzylamine substrate, 250 nm); settings: for SI (hMAO-B selectivity index): IC50(hMAO-A) divided by IC50(hMAO-B); for Times more potent than pargyline (MAO-B) / Times more potent than the reference drug lazabemide (MAO-B): ratio of MAO-B IC50 values; for remaining activity at 10 µM: read-out: Residual Activity at 10 µM (%) MAO-B
Description: as §4, §5

SMILES: COc1ccc(C(=O)/C=C/c2ccccc2)cc1 [Compound C1]
Ki [1]: 0.7 ± 0.05 µM
SI for MAO-B [1]: 5.07

SMILES: COc1ccc(C(=O)/C=C/c2ccc(Cl)cc2)cc1 [Compound C8]
SI for MAO-B [1]: 3.89

SMILES: NCCc1ccc(O)c(O)c1 [Dopamine, reference compound]
Prediction (BBB permeation) [2]: CNS− (CNS− (low BBB permeation predicted): Pe (10^−6 cm·s^−1) < 2.00)
Bibliography Pe [3]: 0.2 ×10⁻⁶ cm/s

SMILES: NCCNC(=O)c1ccc(Cl)cn1 [Lazabemide, reference compound]
MAO-B activity of dialyzed sample (AD) [4]: 74.9%
MAO-B activity of undialyzed sample (AU) [4]: 16.6%

SMILES: CCn1cc(C(=O)O)c(=O)c2cc(F)c(N3CCNC(C)C3)c(F)c21 (stereo not shown) [Lomefloxacin, reference compound]
Prediction (BBB permeation) [2]: CNS− (CNS− (low BBB permeation predicted): Pe (10^−6 cm·s^−1) < 2.00)
Papp ([2]; PAMPA-BBB): 1.22 ± 0.02 ×10⁻⁶ cm/s

SMILES: CN1C(C(=O)Nc2ccccn2)=C(O)c2ccccc2S1(=O)=O [Piroxicam, reference compound]
Experimental Pe ([2]; PAMPA-BBB): 2.44 ± 0.26 ×10^−6 cm·s^−1
Prediction (BBB permeation) [2]: CNS± (CNS± (BBB permeation uncertain): Pe (10^−6 cm·s^−1) from 2.00 to 4.00)
Bibliography Pe [3]: 2.5 ×10⁻⁶ cm/s

SMILES: CC(=O)[C@H]1CC[C@H]2[C@@H]3CCC4=CC(=O)CC[C@]4(C)[C@H]3CC[C@]12C [Progesterone, reference compound]
Prediction (BBB permeation) [2]: CNS+ (CNS+ (high BBB permeation predicted): Pe (10^−6 cm·s^−1) > 4.00)

More lines, main results first:

Ki ([5]; from secondary plots of slopes vs. inhibitor concentrations): 0.011 ± 0.001 µM
MAO-B activity of dialyzed sample (AD) [4]: 68.1%
Reversibility of MAO-B inhibition ([4]; dialysis-based method): reversible MAO-B inhibitors
MAO-B activity of undialyzed sample (AU) [4]: 24.9%
Blood-brain barrier permeability in words ([2]; PAMPA): high blood-brain barrier permeabilities
Papp ([2]; PAMPA-BBB): 15.5 ± 0.33 ×10⁻⁶ cm/s
IC50 [9]: 13.8 ± 0.05 µM
remaining activity at 10 µM [9]: 62.6 ± 9.7%
IC50 [10]: 0.017 ± 0.003 µM
SI (hMAO-B selectivity index) [10]: 812 and 811.8
Times more potent than pargyline (MAO-B) [10]: 1.6 times
Times more potent than the reference drug lazabemide (MAO-B) [10]: 3.7 times
remaining activity at 10 µM [10]: 13.2 ± 0.7%
SMILES: CSc1ccc(C(=O)/C=C/c2ccccc2)cc1 [TM1]
Inhibitor type for MAO-B ([5]; Lineweaver-Burk plots): competitively inhibited MAO-B; also recorded: competitive
viability at 48 h [6]: > 90%
IC50 ([7]; converted from µg/mL): 948 µM
IC50 [7]: 242 µg/mL
Concentrations resulting in high viability (>90%) [7]: < 250 µg/mL
Concentrations resulting in high viability (>90%) ([7]; converted from µg/mL): < 983.1 µM
Effect on H2O2-induced intracellular ROS levels [8]: significantly reduced reactive oxygen species (ROS) levels; also recorded: appreciably lower ROS levels; also recorded: mitigated H2O2-induced increases in ROS levels
Prediction (BBB permeation) [2]: CNS+ (CNS+ (high BBB permeation predicted): Pe (10^−6 cm·s^−1) > 4.00)

Papp ([2]; PAMPA-BBB): 13.3 ± 0.8 ×10⁻⁶ cm/s
IC50 [9]: 7.45 ± 0.25 µM
remaining activity at 10 µM [9]: 48.3 ± 2.4%
IC50 [10]: 0.021 ± 0.003 µM
SI (hMAO-B selectivity index) [10]: 354.8
Times more potent than pargyline (MAO-B) [10]: 1.3 times
Times more potent than the reference drug lazabemide (MAO-B) [10]: 3.0 times
remaining activity at 10 µM [10]: -5.7 ± 5.3%
SMILES: CSc1ccc(C(=O)/C=C/c2ccc(O)cc2)cc1 [TM2]
Prediction (BBB permeation) [2]: CNS+ (CNS+ (high BBB permeation predicted): Pe (10^−6 cm·s^−1) > 4.00)
